Data from PMC5216056 (Nature Communications, 2017).
“And” between values parts separate entries of the source, which are not always exact repeats. Equal entries are not always repeated. Where two headings read alike, the source gives them in different places.

What was measured:
hCB1R = target: T1, hCB1R (Homo sapiens, UniProt P21554); test: cell-based; type: cell-based; details: for Emax: read-out: Emax ± SEM pERK hCB1R
T1 construct: host or cells: CHO

Rat recombinant TRPV2 = target: T2, Rat recombinant TRPV2 (Rattus norvegicus, UniProt Q9WUD2); test: cell-based; type: cell-based; details: for IC50: vs LPC 3μM, read-out: TRPV2 IC50 for antagonism or desensitization
T2 construct: expressed in transfected cells; host or cells: HEK293 (plasmid a gift from HB Bradshaw, Indiana University)
T2 sequence (Q9WUD2 1-761): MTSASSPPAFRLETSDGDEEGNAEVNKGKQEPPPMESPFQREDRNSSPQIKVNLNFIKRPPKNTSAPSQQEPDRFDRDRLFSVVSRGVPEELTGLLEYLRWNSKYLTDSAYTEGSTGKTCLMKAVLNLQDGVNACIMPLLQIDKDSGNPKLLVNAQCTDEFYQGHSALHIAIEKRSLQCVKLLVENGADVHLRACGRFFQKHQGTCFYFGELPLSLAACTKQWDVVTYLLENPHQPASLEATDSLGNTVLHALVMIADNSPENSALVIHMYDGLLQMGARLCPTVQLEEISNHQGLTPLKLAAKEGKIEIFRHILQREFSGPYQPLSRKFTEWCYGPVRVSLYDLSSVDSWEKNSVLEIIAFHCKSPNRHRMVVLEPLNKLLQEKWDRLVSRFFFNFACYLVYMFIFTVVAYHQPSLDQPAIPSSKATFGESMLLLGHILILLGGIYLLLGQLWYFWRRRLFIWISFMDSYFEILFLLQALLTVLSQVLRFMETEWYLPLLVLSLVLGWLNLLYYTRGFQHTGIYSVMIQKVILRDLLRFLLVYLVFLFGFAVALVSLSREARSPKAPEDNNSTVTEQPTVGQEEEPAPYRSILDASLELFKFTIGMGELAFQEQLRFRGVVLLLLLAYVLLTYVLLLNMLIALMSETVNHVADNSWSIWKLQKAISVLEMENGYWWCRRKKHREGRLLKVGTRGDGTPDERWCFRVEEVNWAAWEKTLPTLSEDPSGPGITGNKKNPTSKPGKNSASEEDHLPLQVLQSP

Rat recombinant TRPV4 = target: T3, Rat recombinant TRPV4 (Rattus norvegicus, UniProt Q9ERZ8); test: cell-based; type: cell-based; details: for IC50: vs 4αPDD 1μM, read-out: TRPV4 IC50 for desensitization
T3 construct: expressed in transfected cells; host or cells: HEK293 (TRPV4-HEK-293, gift from HB Bradshaw, Indiana University)
T3 sequence (Q9ERZ8 whole entry): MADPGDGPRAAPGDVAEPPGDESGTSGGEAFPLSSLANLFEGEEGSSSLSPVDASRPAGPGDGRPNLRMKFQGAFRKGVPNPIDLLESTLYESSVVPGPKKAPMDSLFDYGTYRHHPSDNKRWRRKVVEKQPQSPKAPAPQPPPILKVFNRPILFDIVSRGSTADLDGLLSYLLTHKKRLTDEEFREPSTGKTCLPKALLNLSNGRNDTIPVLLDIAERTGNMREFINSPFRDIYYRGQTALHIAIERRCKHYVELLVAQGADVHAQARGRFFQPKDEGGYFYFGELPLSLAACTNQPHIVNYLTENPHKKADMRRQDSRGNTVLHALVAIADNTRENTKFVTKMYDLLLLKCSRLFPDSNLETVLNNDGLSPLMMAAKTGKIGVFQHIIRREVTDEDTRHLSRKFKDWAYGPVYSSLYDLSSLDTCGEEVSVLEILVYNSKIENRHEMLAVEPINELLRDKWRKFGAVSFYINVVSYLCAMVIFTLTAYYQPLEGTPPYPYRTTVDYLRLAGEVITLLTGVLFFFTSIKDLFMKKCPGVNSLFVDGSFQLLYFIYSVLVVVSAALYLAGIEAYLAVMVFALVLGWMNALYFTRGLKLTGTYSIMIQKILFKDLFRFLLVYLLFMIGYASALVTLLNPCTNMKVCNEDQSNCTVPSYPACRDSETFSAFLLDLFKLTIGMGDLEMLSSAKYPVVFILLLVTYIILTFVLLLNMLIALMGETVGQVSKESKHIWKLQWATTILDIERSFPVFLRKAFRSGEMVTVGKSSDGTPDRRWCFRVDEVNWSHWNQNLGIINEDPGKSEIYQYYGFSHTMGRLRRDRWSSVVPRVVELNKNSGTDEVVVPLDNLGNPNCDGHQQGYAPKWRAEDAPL

AR (h) = test: CEREP panel; type: binding, human; details: 10 µM
AT1 (h) = target: T4, AT1 (h) (Homo sapiens, UniProt P30556); test: CEREP panel; type: binding; details: for inhibition at 10 µM: read-out: % inhibition AT1 (h)
T4 construct: CEREP
T4 sequence (P30556 1-359): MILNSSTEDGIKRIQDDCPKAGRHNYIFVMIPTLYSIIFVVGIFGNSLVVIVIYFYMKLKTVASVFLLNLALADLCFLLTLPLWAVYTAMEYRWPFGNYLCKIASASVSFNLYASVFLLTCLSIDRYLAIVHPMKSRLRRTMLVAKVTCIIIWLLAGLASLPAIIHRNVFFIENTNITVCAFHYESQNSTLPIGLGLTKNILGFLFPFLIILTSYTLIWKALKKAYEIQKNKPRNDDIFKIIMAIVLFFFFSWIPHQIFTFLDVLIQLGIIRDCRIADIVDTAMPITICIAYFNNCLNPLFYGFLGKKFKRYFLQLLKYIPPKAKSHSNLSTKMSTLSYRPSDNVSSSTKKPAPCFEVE

mu (MOP) (h) = target: T5, mu (MOP) (h) (Homo sapiens, UniProt P35372); test: CEREP panel; type: binding; details: for inhibition at 10 µM: read-out: % inhibition mu (MOP) (h)
T5 construct: CEREP (contract assay)
T5 sequence (P35372 whole entry): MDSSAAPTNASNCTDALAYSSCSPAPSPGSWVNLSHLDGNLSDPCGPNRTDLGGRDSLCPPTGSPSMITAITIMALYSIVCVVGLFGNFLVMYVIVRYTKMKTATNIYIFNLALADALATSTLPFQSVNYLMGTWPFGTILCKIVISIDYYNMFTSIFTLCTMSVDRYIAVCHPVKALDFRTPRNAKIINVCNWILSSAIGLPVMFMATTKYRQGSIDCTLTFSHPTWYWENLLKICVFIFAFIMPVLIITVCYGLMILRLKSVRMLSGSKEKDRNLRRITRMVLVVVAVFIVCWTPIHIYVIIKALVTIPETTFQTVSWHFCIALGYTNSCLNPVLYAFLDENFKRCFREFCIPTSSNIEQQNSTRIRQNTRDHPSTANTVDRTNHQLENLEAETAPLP

[1] = target: T6, norepinephrine transporter (h) (Homo sapiens, UniProt P23975); test: biochemical; type: binding; details: for inhibition at 10 µM: read-out: % inhibition norepinephrine transporter (h)
T6 construct: CEREP (contract assay)
T6 sequence (P23975 whole entry): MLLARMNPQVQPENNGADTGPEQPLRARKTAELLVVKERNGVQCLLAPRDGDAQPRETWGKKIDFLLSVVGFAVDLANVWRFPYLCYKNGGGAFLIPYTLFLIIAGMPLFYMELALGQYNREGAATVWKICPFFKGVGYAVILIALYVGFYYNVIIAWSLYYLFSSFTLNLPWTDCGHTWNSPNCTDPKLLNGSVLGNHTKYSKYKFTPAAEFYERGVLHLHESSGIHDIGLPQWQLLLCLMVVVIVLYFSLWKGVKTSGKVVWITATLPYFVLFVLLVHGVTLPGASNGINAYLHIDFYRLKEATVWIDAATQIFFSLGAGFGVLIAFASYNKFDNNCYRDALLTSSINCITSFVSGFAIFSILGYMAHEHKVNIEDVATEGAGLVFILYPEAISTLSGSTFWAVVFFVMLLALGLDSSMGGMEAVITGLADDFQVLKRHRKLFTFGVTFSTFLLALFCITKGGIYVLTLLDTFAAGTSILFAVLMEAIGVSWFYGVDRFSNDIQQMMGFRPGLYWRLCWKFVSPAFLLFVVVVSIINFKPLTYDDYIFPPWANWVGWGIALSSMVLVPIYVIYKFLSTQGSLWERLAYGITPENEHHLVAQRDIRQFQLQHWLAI

PPARα (h) = target: T7, PPARα (h) (Homo sapiens, UniProt Q07869); test: CEREP panel; type: binding; details: for inhibition at 10 µM: read-out: % inhibition PPARα (h)
T7 construct: CEREP (contract assay)
T7 sequence (Q07869 1-468): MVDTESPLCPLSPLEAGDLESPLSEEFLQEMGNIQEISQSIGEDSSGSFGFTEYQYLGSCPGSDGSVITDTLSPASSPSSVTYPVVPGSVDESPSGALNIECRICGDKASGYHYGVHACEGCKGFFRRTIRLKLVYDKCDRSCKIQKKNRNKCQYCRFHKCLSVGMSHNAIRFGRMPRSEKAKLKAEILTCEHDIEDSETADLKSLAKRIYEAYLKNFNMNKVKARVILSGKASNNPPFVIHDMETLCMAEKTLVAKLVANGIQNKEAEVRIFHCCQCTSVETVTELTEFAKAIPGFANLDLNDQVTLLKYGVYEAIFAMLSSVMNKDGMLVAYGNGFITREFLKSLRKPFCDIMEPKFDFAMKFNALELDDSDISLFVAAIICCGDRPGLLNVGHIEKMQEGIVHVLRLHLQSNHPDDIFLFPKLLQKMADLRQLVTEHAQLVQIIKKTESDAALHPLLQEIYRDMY

PPARgamma (h) = target: T8, PPARgamma (h) (Homo sapiens, UniProt P37231); test: CEREP panel; type: binding; details: for inhibition at 10 µM: read-out: % inhibition PPARgamma (h)
T8 construct: CEREP (contract assay)
T8 sequence (P37231 1-505): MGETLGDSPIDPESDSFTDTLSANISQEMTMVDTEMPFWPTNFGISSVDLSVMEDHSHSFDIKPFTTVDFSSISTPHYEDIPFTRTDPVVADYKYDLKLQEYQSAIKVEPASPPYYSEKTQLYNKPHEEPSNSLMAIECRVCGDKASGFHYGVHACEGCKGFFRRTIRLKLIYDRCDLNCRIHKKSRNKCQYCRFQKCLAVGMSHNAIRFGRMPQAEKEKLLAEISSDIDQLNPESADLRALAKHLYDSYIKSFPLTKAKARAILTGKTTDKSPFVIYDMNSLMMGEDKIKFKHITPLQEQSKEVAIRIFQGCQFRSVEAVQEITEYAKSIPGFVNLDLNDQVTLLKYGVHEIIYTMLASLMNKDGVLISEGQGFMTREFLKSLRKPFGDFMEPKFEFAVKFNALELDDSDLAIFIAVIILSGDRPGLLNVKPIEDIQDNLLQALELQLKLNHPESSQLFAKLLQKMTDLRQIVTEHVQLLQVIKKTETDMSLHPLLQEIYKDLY

[2] = 1 μM
[3] = 1 μM; remark: listed apart in the source
[4] = i.v., mice; for C0: 1.0-2.0 mg/kg, extrapolated
[5] = logD distribution coefficient

T1 sequence (P21554 whole entry): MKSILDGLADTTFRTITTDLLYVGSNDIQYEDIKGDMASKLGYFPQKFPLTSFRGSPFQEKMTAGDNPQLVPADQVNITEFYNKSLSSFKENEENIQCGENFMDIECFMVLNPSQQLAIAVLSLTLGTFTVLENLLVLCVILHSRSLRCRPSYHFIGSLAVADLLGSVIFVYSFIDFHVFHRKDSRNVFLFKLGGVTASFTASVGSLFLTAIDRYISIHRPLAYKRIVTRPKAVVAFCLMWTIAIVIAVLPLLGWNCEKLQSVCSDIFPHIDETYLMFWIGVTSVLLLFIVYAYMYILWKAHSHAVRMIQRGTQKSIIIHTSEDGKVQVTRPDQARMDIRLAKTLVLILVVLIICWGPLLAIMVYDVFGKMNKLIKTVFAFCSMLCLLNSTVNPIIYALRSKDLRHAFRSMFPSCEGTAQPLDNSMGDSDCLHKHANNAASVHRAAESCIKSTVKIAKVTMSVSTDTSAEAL

| Compound | Emax ± SEM pERK hCB1R (hCB1R) | TRPV2 Efficacy (% ionomycin 4μM) (Rat recombinant TRPV2) | TRPV4 Efficacy (% ionomycin 4μM) (Rat recombinant TRPV4) | % inhibition AR (h) (AR (h)) | % inhibition AT1 (h) (AT1 (h); 10 µM) | % inhibition mu (MOP) (h) (mu (MOP) (h); 10 µM) | % inhibition norepinephrine transporter (h) ([1]; 10 µM) | % inhibition PPARα (h) (PPARα (h); 10 µM) | % inhibition PPARgamma (h) (PPARgamma (h); 10 µM) | CL microsomes human [2] | IC50 (Rat recombinant TRPV2) | IC50 (Rat recombinant TRPV4) | pEC50 ± SEM pERK hCB1R (hCB1R) | also measured |
| --- | --- | --- | --- | --- | --- | --- | --- | --- | --- | --- | --- | --- | --- | --- |
| SR144528 | -21 ± 2 | < 10% | < 10% | -12% | 33% | 11% | 29% | -14% | 31% |  |  |  |  |  |
| CCCn1c(C)c(C(=O)c2cccc3ccccc23)c2ccccc21 [JWH015] |  |  |  | 0% | 21% | 7% | 39% | -16% | 67% | 41 µL/min/mg protein |  |  |  | CL hepatocytes mouse [3]: 205 µL/min/mio cells; AUCinf [4]: 174 ng·h/mL; AUCinf/dose [4]: 158 kg·ng·h/mL/mg; AUClast [4]: 163 ng·h/mL; CL [4]: 105 mL/min/kg; T1/2 [4]: 2.6 h; C0 [4]: 438 ng/mL |
| CCCCCCC(C)(C)c1ccc([C@@H]2C[C@H](O)CC[C@H]2CCCO)c(O)c1 [CP55940] |  |  |  | -28% |  |  |  |  |  |  |  |  |  | inhibition at 10 µM (AT1 (h); 10 µM): 63%; inhibition at 10 µM (mu (MOP) (h); 10 µM): 57%; inhibition at 10 µM ([1]; 10 µM): 89%; inhibition at 10 µM (PPARgamma (h); 10 µM): 85% |
| Cc1c(C(=O)NN2CCCCC2)nn(-c2ccc(Cl)cc2Cl)c1-c1ccc(Cl)cc1 [SR141716A] |  | < 10% | < 10% | 4% |  |  |  |  |  |  | > 100 µM | 2 ± 0.1 µM |  | inhibition at 10 µM (PPARα (h); 10 µM): -5% |
| CCCCCCC(C)(C)c1cc(OC)c(C2=C[C@H]3CC[C@]2(CO)C3(C)C)c(OC)c1 [HU910] | 12 ± 4 | < 10% | < 10% |  | 37% | 23% | 58% | -28% | 17% | 90 µL/min/mg protein | > 100 µM | > 100 µM | < 4 | CL hepatocytes mouse [3]: 34 µL/min/mio cells; AUCinf [4]: 6060 ng·h/mL; AUCinf/dose [4]: 6060 kg·ng·h/mL/mg; AUClast [4]: 5960 ng·h/mL; CL [4]: 2.83 mL/min/kg; T1/2 [4]: 7.4 h and 7 h; C0 [4]: 55600 ng/mL |
| CCCCCCC(C)(C)c1cc(OC)c([C@@H]2C=C(CO)[C@@H]3C[C@H]2C3(C)C)c(OC)c1 [HU308] |  | < 10% | < 10% |  |  |  |  |  |  |  | > 100 µM | > 100 µM |  | EC50 (hCB1R): > 100 µM; Emax (hCB1R): 18 ± 4%; inhibition at 10 µM (AT1 (h)): 53%; inhibition at 10 µM (mu (MOP) (h)): 7%; inhibition at 10 µM [1]: 33%; inhibition at 10 µM (PPARα (h)): -21%; inhibition at 10 µM (PPARgamma (h)): 14%; logD [5]: 4.29 |
| CN1CCCCC1Cn1cc(C(=O)c2cc([N+](=O)[O-])ccc2I)c2ccccc21 (racemic) [(rac)-AM1241] | 86 ± 3 |  |  |  |  |  |  |  |  | 111 µL/min/mg protein |  |  | 5.07 ± 0.05 | logD ([5]; distribution coefficient): 3.66±0.03 |
| CCCCC/C=C\C/C=C\C/C=C\C/C=C\CCCC(=O)OC(CO)CO [2-AG, 2-arachidonoyl glycerol] |  |  |  |  |  |  |  |  |  |  |  |  |  | Emax (hCB1R): 111 ± 10% |
| Cc1c(C(=O)NN2CCCCC2)nn(-c2ccc(Cl)cc2Cl)c1-c1ccc(I)cc1 [AM251] |  | < 10% | < 10% |  | 36% | 93% |  |  | 55% |  |  |  |  |  |
| CN1CCCC[C@@H]1Cn1cc(C(=O)c2cc([N+](=O)[O-])ccc2I)c2ccccc21 [(R)-AM1241] | 78 ± 12 | 14.5% | < 10% |  |  |  |  |  |  | 304 µL/min/mg protein | 35.5 µM | 8.7 ± 0.5 µM | 5.66 ± 0.19 | EC50 (Rat recombinant TRPV2; read-out: TRPV2 Potency EC50): 12 µM; logD ([5]; distribution coefficient): 3.66 |
